Values quoted from earlier work in patent publication US6514544B2, “Beverage for increasing the body's capacity to break down alcohol and method thereof” (JHS-Privatstiftung, priority 1998, dated 2003).

What does the source list for `CCO` [alcohol, ethanol]?
share of the reabsorbed alcohol excreted via the kidneys (approximately): 1-2%; share of the reabsorbed alcohol excreted via the lungs (approximately): 2-3%; amount directly glucuronated (slight amounts): 0.5%
